Test results published in a melting point compilation (Tetko et al.; mined from patent text by program, amines drawn as free bases though some values may be those of a salt).

| Compound | melting point |
| --- | --- |
| CN(C)n1cc(C(=O)NCc2ccc(Cl)cc2)c(=O)c2ccccc21 | 170 to 172 °C |
| O=C(c1ccccc1)C(Cc1ccc(Cl)cc1)c1cccnn1 (stereo unspecified) | 140 to 142 °C |
| O=C(Cc1c(Cl)c(F)nc(F)c1Cl)OCc1ccccc1 | 98 to 101 °C |
| C[C@H](Cc1ccc2oc(C(=O)O)cc2c1)NC[C@H](O)c1csc(C(F)(F)F)n1 | 168 to 171 °C |
| CCOC(=O)Cc1c(C)c2ccc(O)cc2oc1=O | 167 to 168 °C |
| CC(=CCO)c1ccc(C2CCCCCCC2)cc1 | 40 to 44 °C |
| COC(=O)[C@H](Cc1ccc(OC(C)=O)c(OC(C)=O)c1)NC(=O)CNC(=O)OCc1ccccc1 | 130 to 131 °C |
| O=C(NC1(C2CC2)CC1)c1c(NC(=O)c2cc(Cl)nn2-c2ncccc2Cl)c(Cl)cc2cn[nH]c12 | 173 to 175 °C |
| CC(=O)OC1(C(C)=O)CCC2C3C(OS(C)(=O)=O)C(Cl)C4=CC(=O)OCC4(C)C3CCC21C (stereo unspecified) | 222 to 226 °C |
| CCOC(=O)C#CCOCC1=C(C(=O)OCC)C(c2cccc(Cl)c2Cl)C(C(=O)OC)=C(C)N1 (stereo unspecified) | 123 to 125 °C |
| CCCCNc1c(C(=O)OCC)c(C)nc(S)c1[N+](=O)[O-] | 140 to 142 °C |
| CC(C)c1csc(C(C)C)c1NC(=S)NC(C)(C)C | 168 to 169 °C |
| FC(F)(F)Oc1ccc(Nc2cc(N3CCOCC3)nc(-c3ccccc3)n2)cc1 | 144 to 146 °C |
| CN(C)CC(=O)Nc1ccccc1[N+](=O)[O-] | 44 to 47 °C |
| CC(C)c1cccc(COCCCO)c1NC(=O)CC1c2ccccc2Oc2ccccc21 | 150 to 151 °C |
| COc1ccc(-c2ccn(-c3ccc4c5c(n(C)c4c3)CN(C(=O)OC(C)(C)C)CC5)c(=O)c2)cc1 | 306 to 308 °C |
| CC(N)=C(C(=O)OC(C)(C)C)C(=S)NC(=O)c1ccccc1 | 107 to 110 °C |
| CNCC1CC(C)(O)c2ccc(S(=O)(=O)c3ccccc3)cc2O1 (stereo unspecified) | 164 to 165 °C |
| N#CC(F)(F)C(F)(F)C(F)(F)C(F)(F)C#N | 132 °C |
| OC1(c2cccc(-c3ccccc3)c2)CN2CCC1CC2 (stereo unspecified) | 165 to 166 °C |
| CCOC(=O)C1(c2ccccc2)CCN(C2CCC(C#N)(c3ccccn3)CC2)CC1 (stereo unspecified) | 157 °C |
| N#Cc1ccc2c(c1)[C@@H](OC1=CC(=O)CC1)[C@H](O)C(CF)(CF)O2 (relative stereo) | 200 to 201 °C |
| COCCc1nc2c(N)nc3ccccc3c2n1CCCCNC(=O)c1ccc(-n2cccc2)nc1 | 77 to 80 °C |

| Compound | melting point |
| --- | --- |
| CCC(=O)Nc1nn(C)c2c1sc1ccccc12 | 88 to 89 °C |
| COc1cc(NS(=O)(=O)c2ccc3c(c2)CCN3C=O)cc(OC)c1OC | 200 to 201 °C |
| COc1ncc(Cl)c(C)c1Br | 44 to 45 °C |
| CC(C)CC(=O)Nc1c(C(N)=O)nnn1Cc1ccccc1 | 181 to 182 °C |
| Cc1nnc2n1-c1ccc(N)cc1C(c1ccccc1F)=NC2(C)C | 294 °C |
| CC(C)(C)NC(=O)N1CCn2c(C#N)c(-c3cccc(F)c3)c(C(N)=O)c2C1 | > 217 °C |
| C=CC(=O)N1Cc2cc(OC)ccc2SC(Cl)C1 (stereo unspecified) | 97.5 to 99.5 °C |
| CN1CCCc2c1cc[nH]c2=O | 260 °C |
| O=[N+]([O-])CC(c1ccc(Cl)cc1)C1CCCCC1O (racemic) | 82 to 84 °C |
| CC(C)Oc1ccc(/C=C(\NC(=O)c2ccc(OCCCCC3CC3)cc2)C(=O)NCCO)cc1 | 53 to 55 °C |
| CCc1ncnc(N[C@H]2CC[C@@H](C#N)CC2)c1Cl | 131 to 132 °C |
| COc1cc(C)cc(S(=O)(=O)c2cccc(F)c2C#N)c1 | 160 to 162 °C |
| O=c1[nH]c2cnc(-c3ccccc3)nc2n1Cc1ccccc1 | 286 to 287 °C |
| O=C(O)COc1ccc(C(=O)NCC2CCN(c3ccncc3)CC2)cc1 | 84 to 86 °C |
| C#CCSc1ncc(Cl)cn1 | 66 °C |
| C#CCC1CC2C3CCC(=O)C3(C)CCC2C2(C)CCC(=O)C=C12 (stereo unspecified) | 145 to 146 °C |
| CC12CCC(CC1=C=C1C=CC(Nc3nc(Cl)nc(NC4=CCC(=C=C5CC6CCC5(C)C6(C)C)C=C4)n3)=CC1)C2(C)C | 221 °C |
| CN1CCN(C2=CCCc3ccc(OCc4ccc(Cl)cc4)cc32)CC1 | 115 to 116 °C |
| CN1CCN2c3ccccc3Cn3c(c(C=O)c4ccccc43)C2C1 (stereo unspecified) | 260 to 266 °C |
| CCOC(=O)C1=C(C)NC(C)=C(C(=O)OCCSc2ccccc2)C1C (stereo unspecified) | 143 to 145 °C |
| O=C1CCN(C2c3ccccc3-c3ccccc32)CC1 | 135 °C |
| CN(C)c1ncc([N+](=O)[O-])cc1Cl | 111 to 113 °C |
| COc1ccc2c(c1)CCC1C3CCC(=O)C3(C)CCC21O (stereo unspecified) | 69 to 74 °C |

| Compound | melting point |
| --- | --- |
| O=C(NCc1cccc(Cl)c1)c1sc2ccc(Cl)cc2c1O | 184 to 186 °C |
| CC[C@@]1(c2cc(F)cc(OCc3ccc4c(ccc(=O)n4C)c3)c2)CCO[C@H](C)C1 (racemic) | 99 °C |
| O=C(O)Cc1cc([N+](=O)[O-])ccc1C(=O)O | 180 to 182 °C |
| COC(=O)CC1=C(C)Cc2ccc(SC)cc21 | 200 to 210 °C |
| COc1cc2c(=O)n(CCN3CCN(C)CC3)c3c4cc5c(cc4ncc3c2cc1OC)OCO5 | 244 to 246 °C |
| ClCCCOc1ccc(-n2cncn2)cc1 | 81 to 82 °C |
| CC1=C(C#CC2=C(/C=C/C(C)=C/C(=O)O)CCC2)C(C)(C)CCC1 | 173 to 174 °C |
| CC(C)(C)OC(=O)NC(Cc1c[nH]c2ccccc12)C(=O)CCc1cc(C(F)(F)F)cc(C(F)(F)F)c1 (stereo unspecified) | 138 to 140 °C |
| COc1ccc(-c2nnn(Cc3ccc(Cl)cc3Cl)c2N)cc1 | 156 to 159 °C |
| Cc1cc(C(=O)O)c2cccc(OCc3ccccc3)c2n1 | 241 °C |
| OC(CCCN1CC=C(c2noc(C3CC3)n2)CC1)c1ccc(F)cc1 (stereo unspecified) | 89 to 92 °C |
| CN1C[C@@H]2c3ccccc3Oc3ccc(Cl)cc3[C@H]2C1=O (relative stereo) | 151 °C |
| O=C1CSCN1CCCCN1CCN(c2ccc(F)cc2)CC1 | 83 to 85 °C |
| CCOC(=O)c1cc(Cl)c(F)c(Cl)c1 | 59.5 to 60 °C |
| CCOc1ccc(-c2ccc3c(c2)C=C(C(=O)Nc2ccc(CN(C)C4CCOCC4)cc2)CCN3C=O)cc1 | 211 to 215 °C |
| Cc1ccc2oc(=O)c(=O)oc2c1 | 121 to 123 °C |
| CC(=O)OCC(C)C1CCC2C3CC=C4CC(OC5CCCCO5)CC(OC5CCCCO5)C4(C)C3CCC12C (stereo unspecified) | 155 to 161 °C |
| CCCCNc1nnc(NCCCC)c2cc3c(OC)cccc3cc12 | 178 to 180 °C |
| COC(=O)c1ccc2c(oc3ccccc32)c1C(=O)OC | 123 °C |
| Oc1ccc2c(c1)CCN(Cc1ccc(-c3ccccc3)cc1)C2 | 235 to 237 °C |
| Cc1cc(C)c(OP(=O)(C(=O)c2c(C)cc(C)cc2C)c2ccccc2)c(C)c1 (stereo unspecified) | 94 to 96 °C |
| CCn1nc(OCC(=O)C(C)(C)C)c(-c2ccc(F)cc2)c1-c1ccc(S(N)(=O)=O)cc1 | 196 to 198 °C |

The next lines start with the values.

| melting point | Compound |
| --- | --- |
| 292 to 293 °C | Cc1c(N)c(=O)n2c3c(cc(C(O)(C(F)(F)F)C(F)(F)F)cc13)CC2 |
| 212 to 228 °C | CC(C)(C)C(O)C(C(CC#N)c1ccccc1)n1ccnc1 (stereo unspecified) |
| 133 to 135 °C | CCn1c(=O)oc2cc([N+](=O)[O-])ccc21 |
| 66.5 to 67.5 °C | O=C(O)CCCCCCCCOc1ccccc1 |
| 274 to 278 °C | O=C(O)c1cn2c3c(c(N4CCN(Cc5ccccc5)CC4)ccc3c1=O)CCC2 |
| 184 to 187 °C | COC(=O)c1cc2cc(C(=O)c3cccs3)c(Cl)c(Cl)c2o1 |
| 295 to 296 °C | O=C1c2cc(F)ccc2-n2c1nc1ccc(F)cc1c2=O |
| 52 to 55 °C | CCCCCC(=O)c1cccc(OCc2ccc3ccccc3n2)c1 |
| 142 to 143 °C | COc1ccc(-c2nn(Cc3ccncc3)c(=O)cc2-c2ccc(Cl)cc2)cc1 |
| 97 to 100 °C | COCCOc1ccc(CCCNS(=O)(=O)Cc2ccccc2)c(Oc2ncc(C(F)(F)F)cc2Cl)c1 |
| 173 to 175 °C | COCc1c(C(C)=O)ncc2c1c1cc(OCc3ccccc3)ccc1n2S(=O)(=O)c1ccc(C)cc1 |
| 154 °C | CSc1nc(=O)n(C)cc1F |
| 110 to 112 °C | CS(=O)(=O)c1ccc(C[C@H](CO)NC(=O)OCc2ccccc2)cc1 |
| 218 °C | COc1c(S(N)(=O)=O)cccc1S(=O)(=O)NC(=O)Nc1nc(C)cc(C)n1 |
| 99 to 101 °C | O=C1N(Cc2ccc(OC(F)(F)F)cc2)c2ccccc2C12COc1cc3c(cc12)OCO3 (stereo unspecified) |
| 113 to 115 °C | CCC(O)c1c(S(N)(=O)=O)nn(C)c1C(C)(C)C (stereo unspecified) |
| 228 to 230 °C | COC(=O)C1CCC2C3CCC4CC(O)C(O)CC4(C)C3C(NC(=O)OCC(Cl)(Cl)Cl)CC12C (stereo unspecified) |

| melting point | Compound |
| --- | --- |
| 145 to 146 °C | O=C(O)C1SC(c2ccccc2)=NN1C(=O)CCS (stereo unspecified) |
| 157 to 158 °C | COc1c(OC)c(OC)c2c(=O)cc(-c3ccc(OCc4ccccc4)c(OCc4ccccc4)c3)oc2c1OC |
| 114 to 117 °C | CCOC(=O)N1N=C(c2ccc(N)cc2)c2cc(Br)ccc2CC1C (stereo unspecified) |
| 49 to 51 °C | Oc1ccc(OCc2ccccc2)c(Cl)c1 |
| 200 °C | CS(=O)(=O)Nc1ccc([N+](=O)[O-])cc1OC1CCSCC1 |
| 112 °C | C=C1CCC2=C(C1)CC(C)C1C2CCC2(C)C(O)CCC12 (stereo unspecified) |
| 138 to 140 °C | Cc1cc(O)ccc1NCCc1ccccn1 |
| 150 to 151 °C | Cn1ncc(/C=C/C(=O)Nc2ccc(CC(C)(C)C)cc2)c1-c1ccc(F)cc1 |
| 217 to 218 °C | COc1cc(C(O)Cc2c(C)cncc2C)nnc1OC (stereo unspecified) |
| 307 to 311 °C | N#Cc1ccc(-c2nc(S)[nH]c2-c2ccc(Br)cc2)cc1 |
| 85 to 86 °C | CC(C)c1cc(OCCO[Si](C(C)C)(C(C)C)C(C)C)cc2c1C(=O)N(CCl)S2(=O)=O |
| 208 to 210 °C | CC(C)OC(=O)c1cc(-n2c(=O)[nH]c3c(c2=O)CCC3)c(Cl)cc1Br |
| 143 to 146 °C | CCC(=O)c1cnc2c(O)cccc2c1Nc1ccc(F)cc1C |
| 168 to 170 °C | FCCn1cc(-c2ccc3nnn(Cc4ccc5ncccc5c4)c3n2)cn1 |
| 65 to 68 °C | CC1(C)CC(=O)c2c(C3CCC3)sc(C#N)c2C1 |
| 193 °C | COc1cc(-c2cc(-c3ccccn3)no2)cc2oc(=O)c(C)c(C)c12 |
